This note sets out measurements from US20250295652A1, “Inhibitors of Molluscum Contagiosum Infection and Methods Using the Same” (priority 2021, published 2025).

In data set [1] the target is T1, D4 (Vaccinia virus, UniProt P04303, Y163F). In kind it is binding. The note with it: for thermal shift (in words): up to 50 μM.
Data set [2] has as its target T1, D4. In kind it is binding. On the set-up: made in house; host or cells: bacterial cells (IPTG induction); purified for SPR, crude lysate for DARTS.
The target of data set [3] is T1, D4. Format: binding. Further details: made in house; host or cells: bacterial cells (IPTG induction); purified for SPR, crude lysate for DARTS. The source holds these as a separate data set.
In another data set the test system is VV. Description: microbe, parasite or virus in culture. In kind it is cell-based, vaccinia virus. The note with it: Orthopoxvirus vaccinia, BSC-1, read-out: VV EC50.
For a further data set, the system named is mD4-VV surrogate virus. The data set is described as follows: microbe, parasite or virus in culture. Format: cell-based, mD4/vaccinia hybrid virus. The following applies: Hybrid virus, BSC-1, read-out: mD4 EC50.
Data set [4] concerns the target E9/A20/D4 proteins (molluscum mD4) (Molluscum contagiosum virus, UniProt Q98260). The data set is described as follows: biochemical.
Data set [5] in a line: Irritancy on human cadaver skin. The note with it: gel formulated 99. The method, then: Briefly, gel was applied to shaved skin areas, covered for 24 hours and irritancy was measured daily for 3 days after uncovering using the Draize scoring system.
Data set [6] in a line: Solubility in receptor medium. The following applies: 1×PBS/4% BSA receptor medium, typical IVPT study. The text has this:
For this study, human torso skin was used rather than a membrane. Initially, methods development was done to identify the receiving medium in the reservoir of the Franz cell apparatus which provided the greatest compound solubility so that percentages of full penetration would not be underestimated due to poor solubility.

A short description of a further data set: in vitro. The following applies: African green monkey.
The target in another data set is T2, MBP (Escherichia coli, UniProt P0AEX9).
T2 construct: made in house; host or cells: bacterial cells, crude lysate
Description: DARTS, unrelated control protein MBP. In kind it is binding. The note with it: crude cell lysates.

For data set [7], the system named is human estrogen receptor beta (ERβ-N), MBP fusion. The data set is described as follows: DARTS, unrelated control protein ERβ-N. In kind it is binding. The note with it: crude cell lysates.
The test system of data set [8] is duplex or single-stranded DNA. The data set is described as follows: Isothermal titration calorimetry (ITC) DNA binding. The note with it: 40 μM compound, 25° C. The method, then:
Fish sperm DNA (USB Scientific, USA) was dissolved in water and fragmented by sonication in order to generate a random DNA mix. The fragmented DNA was then dialyzed into column buffer absence of glycerol. The 15-mer oligomer comprised of poly d(TC) (Integrated DNA Technologies, USA) was directly prepared in the same buffer without the dialysis step. DNA and compounds were prepared in the same dialysis buffer with added 2.5 mM DTT, 1% DMSO, and 0.005% Tween-20. DNA binding was then assessed by isothermal titration calorimetry (ITC) on a MicroCal iTC200 microcalorimeter (Malvern Instruments, United Kingdom) by titrating 3 μL/injection of 1.2 mg/mL of random DNA (with unknown molar concentration) or 5.3 mg/L of single-stranded DNA into the sample consisting of 40 μM of compound. Experiments were performed at 25° C. with 800 rpm stirring and 3-min spacing in order to allow equilibration. Ethidium bromide (Sigma-Aldrich, USA) was freshly prepared in water. Since the molar concentrations of the DNA ligands were undefined, only raw heat values are depicted.
On the technique in general: In ITC the heat of successive injections is recorded.

The target of data set [9] is T3, E9/A20/D4 proteins (vaccinia virus vD4) (Vaccinia virus, UniProt P04303, Y163F).
T3 construct: made in house; host or cells: TNT reticulocyte lysate (in vitro translation)
Format: biochemical.

For data set [10], the target named is UL30 (DNA polymerase) and UL42 (processivity factor) (Human herpesvirus 1, UniProt P04293+P10226). In kind it is biochemical, HSV-1.
UL30 (DNA polymerase) and UL42 (processivity factor), sequence (P10226 whole entry): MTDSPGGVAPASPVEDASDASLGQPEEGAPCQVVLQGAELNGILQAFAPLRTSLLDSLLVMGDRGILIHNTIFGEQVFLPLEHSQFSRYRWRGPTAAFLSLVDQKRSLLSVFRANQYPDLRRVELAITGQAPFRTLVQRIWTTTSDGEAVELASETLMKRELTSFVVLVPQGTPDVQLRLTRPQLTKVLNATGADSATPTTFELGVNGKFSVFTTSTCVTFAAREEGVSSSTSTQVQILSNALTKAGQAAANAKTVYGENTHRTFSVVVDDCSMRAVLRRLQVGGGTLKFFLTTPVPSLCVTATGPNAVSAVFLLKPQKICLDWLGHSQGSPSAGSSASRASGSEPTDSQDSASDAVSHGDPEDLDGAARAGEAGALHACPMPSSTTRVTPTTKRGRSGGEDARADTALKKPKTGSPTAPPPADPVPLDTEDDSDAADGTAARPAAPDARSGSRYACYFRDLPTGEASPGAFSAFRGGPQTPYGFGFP
UL30 (DNA polymerase) and UL42 (processivity factor), sequence (P04293 whole entry): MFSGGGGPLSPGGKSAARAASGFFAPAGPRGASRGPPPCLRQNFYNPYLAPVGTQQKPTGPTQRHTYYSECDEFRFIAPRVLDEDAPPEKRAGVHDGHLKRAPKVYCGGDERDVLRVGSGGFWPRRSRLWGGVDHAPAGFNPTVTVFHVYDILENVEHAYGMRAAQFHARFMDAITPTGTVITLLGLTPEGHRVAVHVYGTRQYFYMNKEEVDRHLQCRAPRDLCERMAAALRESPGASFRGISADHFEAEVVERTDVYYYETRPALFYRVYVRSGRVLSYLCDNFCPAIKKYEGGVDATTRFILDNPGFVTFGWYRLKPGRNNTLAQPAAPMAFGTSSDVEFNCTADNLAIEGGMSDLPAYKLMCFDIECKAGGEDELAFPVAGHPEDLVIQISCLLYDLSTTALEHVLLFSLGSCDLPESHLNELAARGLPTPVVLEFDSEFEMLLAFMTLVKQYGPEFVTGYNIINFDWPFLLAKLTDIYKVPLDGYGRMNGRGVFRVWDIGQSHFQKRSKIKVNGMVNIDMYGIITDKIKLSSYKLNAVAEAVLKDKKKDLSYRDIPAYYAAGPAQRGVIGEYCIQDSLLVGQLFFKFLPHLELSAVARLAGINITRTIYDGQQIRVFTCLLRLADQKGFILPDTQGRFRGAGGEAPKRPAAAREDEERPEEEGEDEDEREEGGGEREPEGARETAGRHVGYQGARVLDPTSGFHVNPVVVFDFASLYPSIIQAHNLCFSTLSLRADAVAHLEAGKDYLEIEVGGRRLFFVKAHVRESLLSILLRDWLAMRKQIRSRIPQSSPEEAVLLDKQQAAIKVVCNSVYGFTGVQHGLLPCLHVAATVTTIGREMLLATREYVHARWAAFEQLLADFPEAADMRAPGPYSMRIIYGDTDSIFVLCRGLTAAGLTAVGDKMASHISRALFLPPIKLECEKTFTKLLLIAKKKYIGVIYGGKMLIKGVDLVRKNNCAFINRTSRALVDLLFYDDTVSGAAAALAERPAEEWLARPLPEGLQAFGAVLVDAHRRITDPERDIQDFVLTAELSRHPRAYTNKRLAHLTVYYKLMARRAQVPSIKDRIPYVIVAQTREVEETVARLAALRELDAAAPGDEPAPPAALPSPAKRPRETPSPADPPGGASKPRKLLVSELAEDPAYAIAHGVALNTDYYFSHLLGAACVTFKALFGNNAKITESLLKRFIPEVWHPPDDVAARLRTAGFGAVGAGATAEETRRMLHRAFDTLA
Another data set deals with HSV-1. Format: cell-based. The following applies: Vero cells.

A word on the pEC50: it is −log10 of the EC50, conventionally taken in molar units. What is called pIC50 is the IC50 on a negative log10 scale, so that one unit is a factor of ten.

pEC50, pIC50: −log10 of the molar value. Like-named read-outs stand apart in the source and are kept apart here.

E9/A20/D4 proteins (molluscum mD4), sequence (Q98260 1-226): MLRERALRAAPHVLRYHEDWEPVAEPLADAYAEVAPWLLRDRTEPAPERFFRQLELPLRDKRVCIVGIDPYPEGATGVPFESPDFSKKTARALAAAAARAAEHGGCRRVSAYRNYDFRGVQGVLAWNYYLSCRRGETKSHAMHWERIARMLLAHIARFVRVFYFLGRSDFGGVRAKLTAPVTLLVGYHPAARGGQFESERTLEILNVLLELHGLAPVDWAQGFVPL

For `Nc1ccn(C[C@@H](CO)OCP(=O)(O)O)c(=O)n1` [CDV, 1-((3-hydroxy-2-phosphonylmethoxy)propyl)cytosine], the results for the ΔTm at D4 [1] (25 µM) and on D4 [1] (50 µM) were −0.37 ± 0.14; ° C and −0.27 ± 0.37 °C, respectively. Moreover, on D4 [1], the “thermal shift (in words)” value is on record as “no thermal shifts”. On D4 [2], the “SPR binding to D4 (in words)” value is listed as “near-baseline signals”. Moreover, at D4 [3], the “effect on D4 protein levels after Pronase proteolysis (in words)” value (“effect on D4 protein levels” for short) was “did not affect the protein levels of D4”.

Consider `CCC(C(=O)Nc1sc(C(N)=O)c(C)c1C(=O)OC)c1ccc(F)cc1` (stereo not shown) [Compound 99, 5-Carbamoyl-2-[2-(4-fluoro-phenyl)-butyrylamino]-4-methyl-thiophene-3-carboxylic acid methyl ester], for which the pEC50 in the data set on VV was 5.05; in the data set with mD4-VV surrogate virus, 5.06. In [4], this compound gave a pIC50 of 5.05. Besides, the irritancy score entry in data set [5] was “non-irritant”. Further, the “solubility sufficient to detect % of the applied amount” value in [6] is recorded as “up to 143%”.

With `CCC(C(=O)Nc1sc(C(=O)O)c(C)c1C(=O)OC)c1ccc(C(F)(F)F)cc1` (stereo not shown) [Compound 199, 4-(methoxycarbonyl)-5-(2-(4-(trifluoromethyl)phenyl)butanamido)-3-methylthiophene-2-carboxylic acid], the pEC50 in the data set on mD4-VV surrogate virus is 4.75. Also, the CC50 in “in vitro” was above 100 µM.

For the compound `O=C(NN1C(=O)[C@@H]2[C@@H]3C=C[C@@H]([C@H]4C[C@@H]34)[C@@H]2C1=O)c1ccc(C(F)(F)F)cc1` [ST-246], the ΔTm is −0.37 ± 0.08; ° C on D4 [1] (25 µM) and −0.26 ± 0.10 °C on D4 [1] (50 µM). Moreover, the “thermal shift (in words)” value on D4 [1] is “no thermal shifts”. The “SPR binding to D4 (in words)” value at D4 [2] is reported as “near-baseline signals”. Besides, on D4 [3], the “effect on D4 protein levels” value is given as “did not affect the protein levels of D4”.

As to `CCC(C(=O)Nc1sc(C(N)=O)c(C)c1C(=O)OC)c1ccccc1` (stereo not shown) [Compound 1, methyl 5-carbamoyl-4-methyl-2-(2-phenylbutanamido)thiophene-3-carboxylate], the values for the ΔTm on D4 [1] (25 µM) and at D4 [1] (50 µM) were −0.86 and −1.55, respectively. Also, at MBP, the “effect on MBP protein levels after proteolysis (in words)” value was “inability”. In addition, the “effect on ERβ-N protein levels after proteolysis (in words)” value in data set [7] is “inability”. Further, the “DNA binding heat traces (in words)” value in data set [8] is “no appreciable total heats”. Further, the negative logarithm of the EC50 (pEC50) with VV is 4.82; in the data set with mD4-VV surrogate virus it was 4.64. For the same compound, in [9], the “inhibition of VACV DNA synthesis compared with mD4 reaction (in words)” value is “Nearly identical inhibition”. Besides, the pIC50 in data set [4] is 4.79. For the same compound, the “inhibition of DNA synthesis using HSV-1 proteins (in words)” value in data set [10] is given as “no inhibition”. Moreover, the “antiviral activity against HSV-1 infection (in words)” value in the data set on HSV-1 was “lack of antiviral activity”. Also, at D4 [3], the “effect on D4 protein levels” value was “increase in D4 protein levels”.

Take `CCC(C(=O)Nc1sc(C(N)=O)c(C)c1C(=O)OC)c1ccccc1` (single isomer, unassigned) [Compound 29, Methyl 2-(2-phenylbutanamido)-5-carbamoyl-4-methylthiophene-3-carboxylate]: the pEC50 in the data set with VV is 4.55; with mD4-VV surrogate virus it was 4.71. In addition, in [4], the pIC50 is 4.87.

Take `O=C(NCc1ccc(F)c(F)c1)c1ccsc1NC(=O)N1CCN(c2ccccn2)CC1` [Compound 159, N-(3-(3,4-Difluorobenzylcarbamoyl)thiophen-2-yl)-4-(pyridin-2-yl)piperazine-1-carboxamide]: in the data set with mD4-VV surrogate virus, the pEC50 was 4.89. In addition, the pIC50 in data set [4] is 3.93.

With `O=C(NCCN1CCOCC1)Nc1snnc1C(=O)NCc1ccc(Cl)cc1` [Compound 183, 1-(4-(4-Chlorobenzylcarbamoyl)-1,2,3-thiadiazol-5-yl)-3-(2-morpholinoethyl)urea], the pEC50 in the data set on mD4-VV surrogate virus was 4.92. Also, in data set [4], the pIC50 was below 4.00.

`O=C(NCc1ccc(F)cc1)c1ccsc1NC(=O)N1CCN(c2ccccn2)CC1` [Compound 181, N-(3-(4-Fluorobenzylcarbamoyl)thiophen-2-yl)-4-(pyridin-2-yl)piperazine-1-carboxamide]: in the data set on mD4-VV surrogate virus, the negative logarithm of the EC50 (pEC50) was 4.80. For the same compound, the pIC50 in data set [4] is 3.87.

For `CCC(C(=O)Nc1sccc1C(=O)NCc1ccc(Cl)cc1)c1ccccc1` (stereo not shown) [Compound 110, 2-(2-Phenylbutanamido)-N-(4-chlorobenzyl)thiophene-3-carboxamide], the pEC50 with mD4-VV surrogate virus was 5.10. The compound also had a negative logarithm of the IC50 (pIC50) in [4] below 4.00.

Take `COc1ccccc1CN(C)C(=O)c1ccsc1NC(=O)N1CCN(c2ccccn2)CC1` [Compound 172, N-(3-(N-(2-Methoxybenzyl)-N-methylcarbamoyl)thiophen-2-yl)-4-(pyridin-2-yl)piperazine-1-carboxamide]: the negative logarithm of the EC50 (pEC50) in the data set with mD4-VV surrogate virus was 4.65. The pIC50 in [4] is 3.93.

As for `CN(Cc1ccccc1)C(=O)c1ccsc1NC(=O)N1CCN(c2ccccn2)CC1` [Compound 173, N-(3-(N-Benzyl-N-methylcarbamoyl)thiophen-2-yl)-4-(pyridin-2-yl)piperazine-1-carboxamide], the negative-log EC50 (pEC50) in the data set on mD4-VV surrogate virus was 4.92. For the same compound, in data set [4], the pIC50 is below 3.70.

Take `O=C(NCCc1ccccn1)Nc1snnc1C(=O)NCc1ccc(F)cc1` [Compound 184, 1-(4-(4-Fluorobenzylcarbamoyl)-1,2,3-thiadiazol-5-yl)-3-(2-(pyridin-2-yl)ethyl)urea]: the pEC50 in the data set with mD4-VV surrogate virus is 4.64. In data set [4], the pIC50 was 4.22.

`O=C(NCc1ccc(F)cc1)c1nnsc1NC(=O)N1CCN(c2ccccn2)CC1` [Compound 180, N-(4-(4-Fluorobenzylcarbamoyl)-1,2,3-thiadiazol-5-yl)-4-(pyridin-2-yl)piperazine-1-carboxamide]: in the data set with mD4-VV surrogate virus, the pEC50 was 4.89. The same compound gave a pIC50 in data set [4] of 4.41.

Regarding `O=C(NCc1ccc(Cl)cc1)c1nnsc1NC(=O)N1CCN(c2ccccn2)CC1` [Compound 83, N-(4-chlorobenzyl)-5-(4-(pyridin-2-yl)piperazine-1-carboxamido)-1,2,3-thiadiazole-4-carboxamide], the pEC50 was 5.14 in the data set with VV and 5.11 in the data set with mD4-VV surrogate virus. In data set [4], this compound had a pIC50 of 4.50.

For `CCC(C(=O)Nc1sccc1C(=O)NCc1ccccc1)c1ccccc1` (stereo not shown) [Compound 161, 2-(2-Phenylbutanamido)-N-benzylthiophene-3-carboxamide], in the data set on mD4-VV surrogate virus, the pEC50 is 4.92. Moreover, the pIC50 in data set [4] is 3.85.

For the compound `CCC(C(=O)Nc1snnc1-c1ccc(C(F)(F)F)cc1)c1ccccc1` (stereo not shown) [Compound 109, 2-Phenyl-N-[4-(4-trifluoromethyl-phenyl)-[1,2,3]thiadiazol-5-yl]-butyramide], the pEC50 in the data set with mD4-VV surrogate virus was 6.10. Besides, in data set [4], the pIC50 is 4.16.

As for `O=C(NCc1ccc(Cl)cc1)c1ccsc1NC(=O)N1CCN(c2ccccn2)CC1` [Compound 111, 4-Pyridin-2-yl-piperazine-1-carboxylic acid [3-(4-chloro-benzyl carbamoyl)-thiophen-2-yl]-amide], the pEC50 in the data set with mD4-VV surrogate virus is 5.15. The compound further gave a pIC50 in [4] of 4.20. In addition, in [6], the “solubility sufficient to detect % of the applied amount” value is given as at most 90%.
